According to patent publication US12291494B2, “Methods of treating fibrosis” (Nogra Pharma Limited, priority 2012, dated 2025):

Columns and labels:
Collagen-1 = assay: Liver gene expression by quantitative Real Time PCR: collagen-1; type: in vivo, mice
Procedure: (§1) The effect of administration of compound 34 (GED) and the specific CB2 agonist (JWH-133) was evaluated on the level of gene expression of cytokines (IL-1β, TNF-α) and genes involved in the mechanism of fibrosis by quantitative Real Time PCR.
(§2) Total RNA was isolated from livers using Rneasy kit (Macherey Nagel, Hoerdt, France) according to the manufacturer's instructions. RNA quantification was performed using spectrophotometry. After treatment at 37° C. for 30 min with 20-50 units of RNase-free DNase I (Roche Diagnostics Corporation, Indianapolis, IN, USA), oligo-dT primers (Roche Diagnostics Corporation, Indianapolis, USA) were used to synthesize single-stranded cDNA. mRNAs were quantified using SYBR green Master Mix (Applera, Courtaboeuf, France) with murine specific oligonucleotides (see Table 2) in a GeneAmp Abiprism 7000 (Applera, Courtaboeuf, France). In each assay, calibrated and no-template controls were included. Each sample was run in triplicate. SYBR green dye intensity was analyzed using the Abiprism 7000 SDS software (Applera, Courtaboeuf, France). All results were normalized to the unaffected housekeeping gene β-actin.

Male C57bl6 mice = assay: CCl4-induced liver fibrosis: histology (Metavir score); type: in vivo
Procedure: Liver fibrosis was induced in Male C57bl6 mice (Charles River, l'Arbresle, France) by injection of carbon tetrachloride (CCl4). The C57bl6 mice weighed 22-25 g and were maintained in laboratory conditions for 1 week before experiment. Animals were housed 5 per cage with food and water available ad libitum.
The effectiveness of compound 34 (specific ligand of PPARg) as compared to JWH-133 (anti-fibrogenic agent) was evaluated. Compound 34 was administered orally in combination with CCl4 injections for ca. 5 weeks. Compound 34 was dosed daily at 200 uL of a 30 mM solution. JWH-133 was administered daily via intraperitoneal injections at 3 mg/kg (dose volume=100 uL). The model of liver fibrosis is induced by chronic exposure to increased dosages of CCl4 for 5 weeks. The first week, mice received an intraperitoneal injection of CCl4, resuspended in olive oil, at the dosage of 80 μl/kg of mice body weight twice a week. At week 2, 3 injections of CCl4 at the dosage of 160 μl/kg were performed every two days. At week 3, 3 injections of CCl4 at the dosage of 240 μl/kg were performed every two days. At week 4, 3 injections of CCl4 at the dosage of 320 μl/kg were performed every two days. Mice were euthanized, at week 5, 3 days after the last CCl4 administration.
The formalin-fixed liver tissue was processed and 5 μm thick paraffin sections were stained with hematoxylin and eosin (H&E) and Picrosirius red staining (specific coloration for collagen in tissue sections) to evaluate the degree of fibrosis in the liver. Each section was analyzed blindly by 3 different experimenters for the quantification of the degree of fibrosis for each lobe of the liver (5) using the Metavir score (see FIG. 2A for Metavir Score chart). The photographs seen in FIG. 2B were obtained with a 20× objective.

α-SMA = assay: Liver gene expression by quantitative Real Time PCR: α-SMA; type: in vivo, mice; details: liver mRNA, normalized to β-actin; CCl4 group 65.51 ± 22.24
Procedure: as §1, §2

CCCC(C)(C)c1ccc2c(c1)OC(C)(C)[C@@H]1CC=C(C)C[C@@H]21 [JWH-133]
liver concentration of collagen-1 mRNA (Collagen-1; CCl4 mice, result in words): normalizes
Collagen-1 (Collagen-1; liver mRNA, normalized to β-actin, CCl4 group 138.12 ± 34.68): 87.59 ± 16.97
decrease of the fibrotic score (adapted Metavir score) compared to untreated animals (Male C57bl6 mice; FIG. 3B): 14.2%
mean Metavir score (FIG. 3A) (Male C57bl6 mice; compound 34 30 mM 200 uL oral daily, JWH-133 3 mg/kg i.p. daily, CCl4 vehicle group 2.5±0.5): 2±0
degree of fibrosis (Metavir) (Male C57bl6 mice; result in words): decrease in the degree of fibrosis from severe to moderate fibrosis
decrease of hepatic fibrotic lesions (Male C57bl6 mice; summary statement): 14%
α-SMA (α-SMA): 30.07 ± 4.7
